Source: US12441775B2, “BCL-W polypeptides and mimetics for treating or preventing chemotherapy-induced peripheral neuropathy and hearing loss” (Dana-Farber Cancer Institute, Inc., priority 2016, dated 2025)

What was measured:
Format in all cases: cell-based, rat
[1] = tested on: axons of E15 DRG sensory neurons; experiment: Axonal degeneration assay in compartmented chamber cultures (degeneration index); conditions: for axon degeneration (axonal fragmentation, degeneration index): 24 hours
Method: Cell culture. Compartmented chamber (Campenot) cultures were prepared as described (see, e.g., Fenstermacher et al., Springer Protocols: Neuromethods, 103:105-124 (2015)), with modifications. Briefly, DRGs from embryonic day 15 (E15) rats of either sex were dissected and trypsinized. DRGs (1.2×10^5 cells) were plated in the center compartment of a Teflon divider (Camp10, Tyler Research; Campenot, 1982) affixed to a p35 culture dish coated with growth factor reduced Matrigel basement membrane (BD Biosciences) 1:45 in DMEM. Cultures were maintained in media consisting of Neurobasal (Invitrogen) with 2% B27 supplement (Invitrogen), 1% penicillin-streptomycin, 1% GlutaMAX (Life Technologies), 0.08% glucose, and 0.3 μM cytosine arabinoside (AraC) at 37° C., 7.5% CO2; BDNF+NGF (PeproTech) were added to the cell body compartment at a concentration of 10 ng/ml and to the axon compartment at a concentration of 100 ng/ml for 2d. On day 3, media was replaced and the AraC was omitted. On day 5, neurotrophins were removed from the cell body compartment and reduced to 1 ng/ml in the axon compartments for 3-5 days. […] For calpain inhibition experiments, 20 μM calpain inhibitor III (VWR) and paclitaxel were added simultaneously to distal axon compartment.
Axonal degeneration assay. Compartmented chamber cultures were fixed at room temperature with 4% PFA diluted 1:2 in media for 10 min, then undiluted 4% PFA for an additional 20 min. Cultures were permeabilized with 0.1% TritonX-100 for 10 min, blocked in 3% BSA and 0.1% Triton X-100 for 1 hour at room temperature, and incubated with mouse anti-Tuj1 (1:400; clone Tuj1; Covance) overnight at 4° C. Cultures were then incubated with goat anti-mouse AlexaFluor (1:1000; Invitrogen) for 1 hour at room temperature and counterstained with DAPI. Images of distal axon tips were obtained using a 40× air objective, and axonal degeneration was quantified as a degeneration index, as previously described (Cosker et al., Neuroscience, 33:5195-5207 (2013)). Apoptosis analysis was carried out on the same cultures by taking images in the cell body compartment and counting total and condensed nuclei in NIH ImageJ software by an observer blind to condition.
Protein and peptide introduction. Recombinant His-tagged Bclw, Bcl2, and BclxL proteins (R&D Systems) or control β-galactosidase protein were introduced into cell bodies or axons of compartmented chamber cultures as described (e.g., Cosker et al., Nature Neuroscience, 19:690-696 (2016)). Briefly, 1 μg/μ1 protein was introduced into cultures using 2 μl Chariot reagent (Active Motif). To confirm expression of His-tagged proteins, cell bodies and axons were lysed in nonionic detergent, and protein lysates were separated as above and blotted with the following antibodies: anti-His (1:1000; Novagen) and anti-pan-actin (1:1000; Cell Signaling Technology). FITC-tagged SAHB peptides (BH4-Bclw, BH4-Bcl2, and BH4-BclxL; stock solutions 1 mM in DMSO) were introduced into cell bodies or axons using 350 ng peptide and 2 μl of Chariot reagent diluted 1:10 in water. Control was no peptide with 2 μl of 1:10 diluted Chariot. To confirm peptide expression, cultures were processed for axonal degeneration assay as above, and FITC immunofluorescence was examined with a 40× air objective. Paclitaxel was added to cultures 1 hour after protein or peptide transfection.

[2] = tested on: Bcl2; experiment: qRT-PCR and Western blot of cell body and axon lysate after paclitaxel; conditions: 24 hours paclitaxel to axons; axons or cell bodies
Method: (§1) Cell culture. Compartmented chamber (Campenot) cultures were prepared as described (see, e.g., Fenstermacher et al., Springer Protocols: Neuromethods, 103:105-124 (2015)), with modifications. Briefly, DRGs from embryonic day 15 (E15) rats of either sex were dissected and trypsinized. DRGs (1.2×10^5 cells) were plated in the center compartment of a Teflon divider (Camp10, Tyler Research; Campenot, 1982) affixed to a p35 culture dish coated with growth factor reduced Matrigel basement membrane (BD Biosciences) 1:45 in DMEM. Cultures were maintained in media consisting of Neurobasal (Invitrogen) with 2% B27 supplement (Invitrogen), 1% penicillin-streptomycin, 1% GlutaMAX (Life Technologies), 0.08% glucose, and 0.3 μM cytosine arabinoside (AraC) at 37° C., 7.5% CO2; BDNF+NGF (PeproTech) were added to the cell body compartment at a concentration of 10 ng/ml and to the axon compartment at a concentration of 100 ng/ml for 2d. On day 3, media was replaced and the AraC was omitted. On day 5, neurotrophins were removed from the cell body compartment and reduced to 1 ng/ml in the axon compartments for 3-5 days. For paclitaxel treatment experiments, 30 μM paclitaxel (Sigma-Aldrich) or vehicle control (0.1% DMSO) was added to either cell body or distal axon compartments on day 7 for 24 hours. For calpain inhibition experiments, 20 μM calpain inhibitor III (VWR) and paclitaxel were added simultaneously to distal axon compartment.
(§2) Western blotting. […] Using NIH ImageJ software, protein levels were quantified and levels of protein were normalized to GAPDH.
(§3) Quantitative reverse transcription-PCR. […] Quantitative real-time RT-PCR was performed using Taqman Gene expression assays (Applied Biosystems) to assess the expression of bclw (Rn00821025_g1), bcl2 (Rn99999125_m1), and bclxL (Rn00580568_g1). […]

[3] = tested on: Bclw; experiment: as above; conditions: 24 hours paclitaxel to axons; axons vs cell bodies
Method: as §1, §2, §3

[4] = tested on: BclxL; experiment: as above; conditions: 24 hours paclitaxel to axons; axons or cell bodies
Method: as §1, §2, §3

Compound: CC(=O)O[C@H]1C(=O)[C@@]2(C)[C@H]([C@H](OC(=O)c3ccccc3)[C@]3(O)C[C@H](OC(=O)[C@H](O)[C@@H](NC(=O)c4ccccc4)c4ccccc4)C(C)=C1C3(C)C)[C@]1(OC(C)=O)CO[C@@H]1C[C@@H]2O [paclitaxel]
- axon degeneration (axonal fragmentation, degeneration index) ([1]; paclitaxel 30 nM added to cell body compartment): no effect
- axon degeneration (axonal fragmentation, degeneration index) ([1]; paclitaxel 30 nM added to distal axon compartment): increase axon degeneration
- axonal degeneration ([1]; paclitaxel after shRNA knockdown of Bclw): further increased axonal degeneration
- Bcl2 mRNA or protein [2]: did not alter
- Bclw mRNA and protein levels [3]: reduced Bclw mRNA and protein levels selectively in axons and not in cell bodies
- BclxL mRNA or protein [4]: did not alter
